Experimental data published in patent US8586591B2, “Aminopyrazine derivative and medicine” (Nippon Shinyaku Co., Ltd., priority 2009, dated 2013).
Where a name gives a salt, the structure may show the parent alone. Read-outs that look alike come from different tables or passages of the source.

What was measured:
[1] = molecular target: BaF3 cells into which JAK2 V617F gene was introduced (Homo sapiens, UniProt O60674, V617F, cells depend on it); test: Test 2: growth inhibitory action against variant JAK2 expressed cells (MTT method); type: cell-based; conditions: incubation for 3 days, triplicate, read-out: concentration of the test material which inhibited 50% of the cell growth (IC50)
Method: Test 2: Growth inhibitory action against variant JAK2 expressed cells
BaF3 cells into which JAK2 V617F gene was introduced ([…]) were inoculated on a 96-well plate in an amount of 1×10^3 cells/well and allowed to stand in a CO2 incubator. Next day, the test material was added to the cells. The test material was serially diluted with DMSO to give 10 mM, 6 mM, 3 mM, 1 mM, 600 μM, 300 μM, 100 μM, 60 μM, 30 μM, or 10 μM solution. This was diluted 100 times with distilled water to give 100 μM, 60 μM, 30 μM, 10 μM, 6 μM, 3 μM, 1 μM, 600 nM, 300 nM, or 100 nM solution. This solution of test material was added to the well in an amount of 10 μl/well. As a negative control, 1% DMSO solution was added to the well in an amount of 10 μl/well. In the above operation, the final concentration of the test material became 10 μM, 6 μM, 3 μM, 1 μM, 600 nM, 300 nM, 100 nM, 60 nM, 30 nM, 10 nM, or 0 nM (0.1% DMSO solution). The addition of the test material solution to each well was made in triplicate.
After continuous incubation for 3 days, the viable count was determined by an MTT method. The MTT method was carried out as follows. First, 10 μl each of solution containing 5 mg/ml of MTT (3-(4,5-dimethylthiazol-2-yl)-2,5-diphenyltetrazolium bromide) was added to each well. The plate was allowed to stand in a CO2 incubator for 4 hours, and then 100 μl of 0.04N HCl/2-propanol solution was added to each well to stop the reaction. The generated MTT-formazan was dissolved well with a multi-channel pipette, and the absorbance at 595 nm was measured with reference to that at 655 nm (Thermo Co.; Multiskan FC). Non-linear regression analysis was made by means of a SAS system (SAS Institute Inc.), and the concentration (IC50) of the test material which inhibited 50% of the cell growth was estimated.

[2] = molecular target: T1, JAK3 tyrosine kinase (Homo sapiens, UniProt P52333); test: Test 1: inhibitory activity to JAK3 tyrosine kinase (ELISA); type: biochemical; conditions: 25 μM ATP in substrate solution, 30° C. for 1 hour, n=2
T1 construct: purchased Carnabioscience Co
T1 sequence (P52333 1-1124): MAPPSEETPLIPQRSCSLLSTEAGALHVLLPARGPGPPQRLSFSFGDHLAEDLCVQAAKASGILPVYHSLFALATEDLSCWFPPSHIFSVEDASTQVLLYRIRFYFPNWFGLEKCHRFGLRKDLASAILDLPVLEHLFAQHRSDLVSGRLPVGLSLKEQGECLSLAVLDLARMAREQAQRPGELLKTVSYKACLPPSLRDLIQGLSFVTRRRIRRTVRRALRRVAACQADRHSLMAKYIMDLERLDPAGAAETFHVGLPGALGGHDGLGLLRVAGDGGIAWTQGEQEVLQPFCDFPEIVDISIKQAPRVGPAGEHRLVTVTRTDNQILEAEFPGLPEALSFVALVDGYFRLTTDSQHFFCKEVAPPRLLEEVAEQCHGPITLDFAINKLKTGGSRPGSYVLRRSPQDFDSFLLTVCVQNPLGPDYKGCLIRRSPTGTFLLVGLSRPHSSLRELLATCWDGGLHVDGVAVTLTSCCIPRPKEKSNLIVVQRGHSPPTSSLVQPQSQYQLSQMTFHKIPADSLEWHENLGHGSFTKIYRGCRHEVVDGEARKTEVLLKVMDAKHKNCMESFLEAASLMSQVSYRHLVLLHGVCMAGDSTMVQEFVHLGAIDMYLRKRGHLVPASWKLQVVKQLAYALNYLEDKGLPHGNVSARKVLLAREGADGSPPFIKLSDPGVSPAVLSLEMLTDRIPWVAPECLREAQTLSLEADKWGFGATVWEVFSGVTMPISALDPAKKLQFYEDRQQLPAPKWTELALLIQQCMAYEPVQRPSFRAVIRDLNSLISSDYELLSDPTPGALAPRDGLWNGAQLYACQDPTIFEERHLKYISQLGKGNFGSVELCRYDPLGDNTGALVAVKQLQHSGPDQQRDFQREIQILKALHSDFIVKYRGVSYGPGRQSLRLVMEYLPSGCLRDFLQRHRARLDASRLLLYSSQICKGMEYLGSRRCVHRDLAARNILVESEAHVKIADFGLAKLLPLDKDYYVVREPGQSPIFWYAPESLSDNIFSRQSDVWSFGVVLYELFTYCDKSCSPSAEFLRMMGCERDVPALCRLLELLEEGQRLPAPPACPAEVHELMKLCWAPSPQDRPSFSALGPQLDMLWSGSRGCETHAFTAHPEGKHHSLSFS
Summary of the method: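 ELISA of JAK3 kinase activity with absorbance read at 450 nm. Compounds were tested from DMSO dilution series at 100-fold the measurement concentrations (1000–0.01 μM), diluted up to 20 times in assay buffer, against a DMSO negative control. IC50 was estimated by non-linear regression of absorbance.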

[3] = molecular target: T2, JAK2 tyrosine kinase (Homo sapiens, UniProt O60674); test: Test 1: inhibitory activity to JAK2 tyrosine kinase (ELISA); type: biochemical; conditions: 25 μM ATP in substrate solution, 30° C. for 1 hour, n=2
T2 construct: purchased Carnabioscience Co
Summary of the method: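 Human JAK2 (diluted to 0.75 nM before addition) phosphorylated a biotinylated peptide on streptavidin plates for 1 h at 30 °C. The substrate mix held 625 nM peptide, 25 μM ATP and 25 mM MgCl2 in 15 mM Tris pH 7.5, 0.01% Tween-20 and 1 mM DTT. Phosphotyrosine was detected by HRP antibody/TMB at 450 nm, and IC50 was obtained by non-linear regression; duplicates were run.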

BaF3 cells into which JAK2 V617F gene was introduced, sequence (O60674 whole entry V617F): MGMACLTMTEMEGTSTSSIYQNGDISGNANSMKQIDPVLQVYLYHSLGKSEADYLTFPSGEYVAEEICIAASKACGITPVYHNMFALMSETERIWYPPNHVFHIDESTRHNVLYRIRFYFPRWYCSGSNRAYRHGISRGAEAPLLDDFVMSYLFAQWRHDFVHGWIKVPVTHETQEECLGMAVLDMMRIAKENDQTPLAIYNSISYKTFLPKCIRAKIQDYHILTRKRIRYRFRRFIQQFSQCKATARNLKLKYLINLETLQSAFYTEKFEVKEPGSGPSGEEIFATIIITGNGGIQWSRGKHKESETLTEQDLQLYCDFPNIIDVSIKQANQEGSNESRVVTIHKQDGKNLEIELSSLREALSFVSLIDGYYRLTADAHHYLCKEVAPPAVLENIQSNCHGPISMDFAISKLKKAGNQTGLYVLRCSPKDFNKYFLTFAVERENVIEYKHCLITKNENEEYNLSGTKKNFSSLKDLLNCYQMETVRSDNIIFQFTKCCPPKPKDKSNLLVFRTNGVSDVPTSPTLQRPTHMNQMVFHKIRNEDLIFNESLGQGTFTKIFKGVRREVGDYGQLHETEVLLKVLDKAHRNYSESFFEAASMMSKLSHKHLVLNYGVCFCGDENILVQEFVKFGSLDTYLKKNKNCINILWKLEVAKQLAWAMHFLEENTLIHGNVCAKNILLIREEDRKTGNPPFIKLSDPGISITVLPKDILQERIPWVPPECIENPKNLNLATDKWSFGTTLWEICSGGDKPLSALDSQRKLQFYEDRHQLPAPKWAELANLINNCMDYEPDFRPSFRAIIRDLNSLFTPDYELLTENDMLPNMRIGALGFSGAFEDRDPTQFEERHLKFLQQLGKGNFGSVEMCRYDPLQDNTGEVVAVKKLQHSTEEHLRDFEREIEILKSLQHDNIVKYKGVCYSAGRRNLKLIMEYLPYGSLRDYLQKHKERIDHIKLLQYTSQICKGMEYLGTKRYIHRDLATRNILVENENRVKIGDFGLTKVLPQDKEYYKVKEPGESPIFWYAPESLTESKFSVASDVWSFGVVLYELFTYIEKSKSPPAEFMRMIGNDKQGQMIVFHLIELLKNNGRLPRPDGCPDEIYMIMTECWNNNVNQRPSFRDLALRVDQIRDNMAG
T2 sequence (O60674 whole entry): as the sequence (O60674 whole entry V617F) above, with F617V counted along it

| SMILES | GI50 [1] [nM] | IC50 [2] [nM] | IC50 [3] [nM] | GI50 ([1]; hydrochloride) [nM] | GI50 ([1]; maleate) [nM] |
| --- | --- | --- | --- | --- | --- |
| C[C@H](Nc1nc(Nc2cnccn2)cc(N2CC(N3CCCC3)C2)n1)c1ccc(F)cc1 [Example 222, (S)—N^2-[1-(4-Fluorophenyl)ethyl]-N^4-(pyrazin-2-yl)-6-[3-(pyrrolidin-1-yl)azetidin-1-yl]pyrimidine-2,4-diamine] | 66 | 18 | 0.75 | – | – |
| C[C@H](Nc1nc(Nc2cnccn2)cc(N2CC(N3CCOCC3)C2)n1)c1ccc(F)cc1 [Example 223, (S)—N^2-[1-(4-Fluorophenyl)ethyl]-6-(3-morpholinoazetidin-1-yl)-N^4-(pyrazin-2-yl)pyrimidine-2,4-diamine] | 57 | 11 | 0.65 | – | – |
| C[C@H](Nc1nc(Nc2cnccn2)cc(N2CCC(O)C2)n1)c1ccc(F)cc1 (stereo partly drawn) [Example 50, 1-{2-[(S)-1-(4-Fluorophenyl)ethylamino]-6-(pyrazin-2-ylamino)pyrimidin-4-yl}pyrrolidin-3-ol hydrochloride] | 53 | 29 | 0.84 | – | – |
| C[C@H](Nc1nc(Nc2cnccn2)cc(N2CC(O)(C3CC3)C2)n1)c1ccc(F)cc1 [Example 200, (S)-3-Cyclopropyl-1-{2-[1-(4-fluorophenyl)ethylamino]-6-(pyrazin-2-ylamino)pyrimidin-4-yl}azetidin-3-ol hydrochloride] | 70 | 26 | 0.39 | – | – |
| C[C@H](Nc1cc(-c2cnn(C)c2)cc(Nc2cnccn2)n1)c1ccc(F)cc1 [Example 4, (S)—N^2-[1-(4-Fluorophenyl)ethyl]-4-(1-methyl-1H-pyrazol-4-yl)-N^6-(pyrazin-2-yl)pyridine-2,6-diamine hydrochloride] | – | 44 | 0.59 | 71 | – |
| C[C@H](Nc1cc(-c2cnn(C)c2)cc(Nc2cnccn2)n1)c1ccc(F)cc1 [Example 30, (S)—N^2-[1-(4-Fluorophenyl)ethyl]-4-(1-methyl-1H-pyrazol-4-yl)-N^6-(pyrazin-2-yl)pyridine-2,6-diamine maleate] | – | 75 | 1.5 | – | 60 |
| C[C@H](Nc1nc(Nc2cnccn2)cc(N2CCOCC2)n1)c1ccc(F)cc1 [Example 31, (S)—N^2-[1-(4-Fluorophenyl)ethyl]-6-morpholino-N^4-(pyrazin-2-yl)pyrimidine-2,4-diamine maleate] | – | 26 | 0.41 | – | 87 |
| C[C@H](Nc1nc(Nc2cnccn2)cc(N2CC(CO)C2)n1)c1ccc(F)cc1 [Example 228, (S)-(1-{2-[1-(4-Fluorophenyl)ethylamino]-6-(pyrazin-2-ylamino)pyrimidin-4-yl}azetidin-3-yl)methanol] | 89 | 19 | 1.1 | – | – |
| CCS(=O)(=O)NCC1CN(c2cc(Nc3cnccn3)nc(N[C@@H](C)c3ccc(F)cc3)n2)C1 [Example 231, (S)—N-[(1-{2-[1-(4-Fluorophenyl)ethylamino]-6-(pyrazin-2-ylamino)pyrimidin-4-yl}azetidin-3-yl)methyl]ethane sulfonamide] | 97 | 33 | 0.59 | – | – |
| C[C@H](Nc1nc(Nc2cnccn2)cc(N2CC(N3CCN(C)CC3)C2)n1)c1ccc(F)cc1 [Example 224, (S)—N^2-[1-(4-Fluorophenyl)ethyl]-6-[3-(4-methylpiperazin-1-yl)azetidin-1-yl]-N^4-(pyrazin-2-yl)pyrimidine-2,4-diamine] | 94 | 16 | 1.1 | – | – |
| C[C@H](Nc1cc(-c2ccc(O)nc2)cc(Nc2cnccn2)n1)c1ccc(F)cc1 [Example 7, (S)-2′-[1-(4-Fluorophenyl)ethylamino]-6′-(pyrazin-2-ylamino)-3,4′-bipyridin-6-ol hydrochloride] | 90 | 39 | 0.42 | – | – |
| C[C@H](Nc1nc(Nc2cnccn2)cc(N2CCC(O)(CO)CC2)n1)c1ccc(F)cc1 [Example 105, (S)-1-{2-[1-(4-Fluorophenyl)ethylamino]-6-(pyrazin-2-ylamino)pyrimidin-4-yl}-4-(hydroxymethyl)piperidin-4-ol] | 60 | 27 | 0.55 | – | – |
| CCCNC(=O)c1cc(Nc2cnccn2)nc(N[C@@H](C)c2ccc(F)cc2)c1 [Example 166, (S)-2-[1-(4-Fluorophenyl)ethylamino]-N-propyl-6-(pyrazin-2-ylamino)isonicotinamide] | 64 | 380 | 2.2 | – | – |
| C[C@H](Nc1cc(-c2cn[nH]c2)cc(Nc2cnccn2)n1)c1ccc(F)cc1 [Example 28, (S)—N^2-[1-(4-Fluorophenyl)ethyl]-N^6-(pyrazin-2-yl)-4-(1H-pyrazol-4-yl)pyridine-2,6-diamine] | 94 | 110 | 1.2 | – | – |
| C[C@H](Nc1nc(Nc2cnccn2)cc(N2CCC3(CC2)COC(=O)O3)n1)c1ccc(F)cc1 [Example 112, (S)-8-{2-[1-(4-Fluorophenyl)ethylamino]-6-(pyrazin-2-ylamino)pyrimidin-4-yl}-1,3-dioxo-8-azaspiro[4.5]decan-2-one] | 64 | 67 | 0.69 | – | – |
| CC(=O)NCC1CN(c2cc(Nc3cnccn3)nc(N[C@@H](C)c3ccc(F)cc3)n2)C1 [Example 232, (S)—N-[(1-{2-[1-(4-Fluorophenyl)ethylamino]-6-(pyrazin-2-ylamino)pyrimidin-4-yl}azetidin-3-yl)methyl]acetamide] | 88 | 32 | 0.55 | – | – |
| C[C@H](Nc1nc(Nc2cnccn2)cc(N2CC(N3CCC(O)CC3)C2)n1)c1ccc(F)cc1 [Example 225] | 64 | 13 | 0.69 | – | – |
| CC(=O)N[C@@H]1CCN(c2cc(Nc3cnccn3)nc(N[C@@H](C)c3ccc(F)cc3)n2)C1 [Example 27, N—((R)-1-{2-[(S)-1-(4-Fluorophenyl)ethylamino]-6-(pyrazin-2-ylamino)pyrimidin-4-}pyrrolidin-3-yl)acetamide hydrochloride] | 89 | 42 | 0.52 | – | – |
